Measured values taken from the supplement of paper PMC9663587.

compound: CN(C)C/C=C/C(=O)Nc1ccc(C(=O)N2CCC[C@@H](Nc3ncc(Cl)c(-c4c[nH]c5ccccc45)n3)C2)cc1 [THZ531]; assay: GR value, 72 h; higher = faster growth (1 = untreated, <0 = killing); settings: 0.03162 µM;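 note: breast cancer and non-malignant breast epithelial lines, nine half-log doses, viable cells counted by Hoechst and LIVE/DEAD dye imaging versus time-zero plates and DMSO controls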
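Throughout, for GR50, 72 h: breast cancer and non-malignant breast epithelial cell lines, Deep Dye Drop or Dye Drop imaging, nine half-log doses, GR normalized to time-zero plates and DMSO-only controls.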

Cell Line | GR value [GR]
HCC1419 | 1.08
HCC1569 | 0.907
HCC1806 | 1
HCC1937 | 1.16
HCC1954 | 1.05
HS578T | 0.798

same assay, conditions: 0.1 µM

Cell Line | GR value [GR]
HCC1419 | 0.772
HCC1569 | -0.21
HCC1806 | 0.992
HCC1937 | 0.954
HCC1954 | 0.873
HS578T | 0.051

same assay, conditions: 0.3162 µM

Cell Line | GR value [GR]
HCC1419 | 0.0179
HCC1569 | -0.155
HCC1806 | 0.659
HCC1937 | 0.219
HCC1954 | 0.66
HS578T | -0.213

same assay, conditions: 1 µM

Cell Line | GR value [GR]
HCC1419 | -0.31
HCC1569 | 0.0205
HCC1806 | -0.489
HCC1937 | -0.302
HCC1954 | -0.297
HS578T | -0.252

compound: CN(C)C(=O)c1cc2cnc(Nc3ccc(N4CCNCC4)cn3)nc2n1C1CCCC1 [LEE011/Ribociclib]; assay: as above; settings: 0.001 µM

Cell Line | GR value [GR]
HCC1419 | 0.953
HCC1569 | 1.04
HCC1806 | 0.919
HCC1937 | 0.945
HCC1954 | 0.804
HS578T | 0.825

same assay, conditions: 0.003162 µM

Cell Line | GR value [GR]
HCC1419 | 0.835
HCC1569 | 1.1
HCC1806 | 0.948
HCC1937 | 0.893
HCC1954 | 0.771
HS578T | 0.861

same assay, conditions: 0.01 µM

Cell Line | GR value [GR]
HCC1419 | 0.774
HCC1569 | 1.07
HCC1806 | 0.884
HCC1937 | 1.14
HCC1954 | 0.811
HS578T | 0.73

same assay, conditions: 0.03162 µM

Cell Line | GR value [GR]
HCC1419 | 0.889
HCC1569 | 0.978
HCC1806 | 0.886
HCC1937 | 1.02
HCC1954 | 0.771
HS578T | 0.672

same assay, conditions: 0.1 µM

Cell Line | GR value [GR]
HCC1419 | 0.685
HCC1569 | 1.09
HCC1806 | 0.876
HCC1937 | 1
HCC1954 | 0.655
HS578T | 0.63

same assay, conditions: 0.3162 µM

Cell Line | GR value [GR]
HCC1419 | 0.58
HCC1569 | 0.913
HCC1806 | 0.824
HCC1937 | 0.875
HCC1954 | 0.609
HS578T | 0.621

same assay, conditions: 1 µM

Cell Line | GR value [GR]
HCC1419 | 0.655
HCC1569 | 1.26
HCC1806 | 0.796
HCC1937 | 0.964
HCC1954 | 0.654
HS578T | 0.591

same assay, conditions: 3.162 µM

Cell Line | GR value [GR]
HCC1419 | 0.561
HCC1569 | 1.32
HCC1806 | 0.801
HCC1937 | 1.02
HCC1954 | 0.687
HS578T | 0.513

same assay, conditions: 10 µM

Cell Line | GR value [GR]
HCC1419 | 0.525
HCC1569 | 0.86
HCC1806 | 0.699
HCC1937 | 1.11
HCC1954 | 0.539
HS578T | 0.373

compound: CC(=O)c1c(C)c2cnc(Nc3ccc(N4CCNCC4)cn3)nc2n(C2CCCC2)c1=O; assay: as above; settings: 0.0003162 µM

Cell Line | GR value [GR]
HCC1419 | 1.18
HCC1569 | 0.957
HCC1806 | 1.07
HCC1937 | 1.04
HCC1954 | 1.14
HS578T | 1.07

same assay, conditions: 0.001 µM

Cell Line | GR value [GR]
HCC1419 | 1.09
HCC1569 | 0.991
HCC1806 | 1.02
HCC1937 | 1.1
HCC1954 | 1.02
HS578T | 0.988

same assay, conditions: 0.003162 µM

Cell Line | GR value [GR]
HCC1419 | 1.11
HCC1569 | 1.03
HCC1806 | 0.939
HCC1937 | 1.13
HCC1954 | 1.07
HS578T | 0.928

same assay, conditions: 0.01 µM

Cell Line | GR value [GR]
HCC1419 | 0.903
HCC1569 | 1.05
HCC1806 | 0.965
HCC1937 | 1.1
HCC1954 | 0.905
HS578T | 0.764

same assay, conditions: 0.03162 µM

Cell Line | GR value [GR]
HCC1419 | 0.828
HCC1569 | 0.928
HCC1806 | 0.851
HCC1937 | 1.06
HCC1954 | 0.863
HS578T | 0.666

same assay, conditions: 0.1 µM

Cell Line | GR value [GR]
HCC1419 | 0.612
HCC1569 | 0.938
HCC1806 | 0.695
HCC1937 | 1.03
HCC1954 | 0.733
HS578T | 0.569

same assay, conditions: 0.3162 µM

Cell Line | GR value [GR]
HCC1419 | 0.535
HCC1569 | 1.06
HCC1806 | 0.739
HCC1937 | 0.99
HCC1954 | 0.611
HS578T | 0.481

same assay, conditions: 1 µM

Cell Line | GR value [GR]
HCC1419 | 0.393
HCC1569 | 0.932
HCC1806 | 0.625
HCC1937 | 1.07
HCC1954 | 0.57
HS578T | 0.423

same assay, conditions: 3.162 µM

Cell Line | GR value [GR]
HCC1419 | 0.492
HCC1569 | 1.05
HCC1806 | 0.771
HCC1937 | 1.07
HCC1954 | 0.523
HS578T | 0.302

compound: CCc1cnn2c(NCc3ccc[n+]([O-])c3)cc(N3CCCC[C@H]3CCO)nc12; assay: as above; settings: 0.0001 µM

Cell Line | GR value [GR]
HCC1419 | 1.15
HCC1569 | 1.03
HCC1806 | 1.04
HCC1937 | 1.02
HCC1954 | 0.941
HS578T | 0.955

same assay, conditions: 0.0003162 µM

Cell Line | GR value [GR]
HCC1419 | 1.16
HCC1569 | 0.932
HCC1806 | 1.05
HCC1937 | 1.03
HCC1954 | 1.04
HS578T | 1.04

same assay, conditions: 0.001 µM

Cell Line | GR value [GR]
HCC1419 | 1.06
HCC1569 | 1.06
HCC1806 | 1
HCC1937 | 1.06
HCC1954 | 1.05
HS578T | 0.986

same assay, conditions: 0.003162 µM

Cell Line | GR value [GR]
HCC1419 | 1.25
HCC1569 | 0.984
HCC1806 | 1.01
HCC1937 | 1.1
HCC1954 | 1.12
HS578T | 1.02

same assay, conditions: 0.01 µM

Cell Line | GR value [GR]
HCC1419 | 1.15
HCC1569 | 0.928
HCC1806 | 0.798
HCC1937 | 0.983
HCC1954 | 0.69
HS578T | 0.313

same assay, conditions: 0.03162 µM

Cell Line | GR value [GR]
HCC1419 | 0.199
HCC1569 | -0.0195
HCC1806 | -0.315
HCC1937 | 0.0186
HCC1954 | -0.352
HS578T | -0.21

same assay, conditions: 0.1 µM

Cell Line | GR value [GR]
HCC1419 | -0.384
HCC1569 | -0.224
HCC1806 | -0.472
HCC1937 | -0.185
HCC1954 | -0.474
HS578T | -0.191

same assay, conditions: 0.3162 µM

Cell Line | GR value [GR]
HCC1419 | -0.426
HCC1569 | -0.229
HCC1806 | -0.465
HCC1937 | -0.211
HCC1954 | -0.472
HS578T | -0.216

same assay, conditions: 1 µM

Cell Line | GR value [GR]
HCC1419 | -0.471
HCC1569 | -0.251
HCC1806 | -0.45
HCC1937 | -0.206
HCC1954 | -0.441
HS578T | -0.237

compound: CC1=CN2C(=O)C=C(N=C2C(=C1)C(C)NC3=CC=CC=C3)N4CCOCC4 [TGX221]; assay: not given; settings: not given

Cell Line | GR50, 72 h [µM]
HCC1419 | > 10
HCC1569 | > 10
HCC1806 | > 10
HCC1937 | > 10
HCC1954 | > 10
HS578T | > 10

compound: CCOc1cc2ncc(C#N)c(Nc3ccc(OCc4ccccn4)c(Cl)c3)c2cc1NC(=O)/C=C/CN(C)C [Neratinib/HKI272]; assay: not given; settings: not given

Cell Line | GR50, 72 h [µM]
HCC1419 | 0.00115
HCC1569 | 0.0891
HCC1806 | 0.78
HCC1937 | 1.46
HCC1954 | 0.0672
HS578T | 0.644

compound: CN(C)C/C=C/C(=O)Nc1ccc(O[C@@H]2CCC[C@@H](Nc3ncc(Cl)c(-c4c[nH]c5ccccc45)n3)C2)cc1 [BSJ-01-175]; assay: not given; settings: not given

Cell Line | GR50, 72 h [µM]
HCC1419 | 0.541
HCC1569 | 0.00923
HCC1806 | 0.092
HCC1937 | 0.302
HCC1954 | 0.102
HS578T | 0.0056

compound: CN1CC[C@H](c2c(O)cc(O)c3c(=O)cc(-c4ccccc4Cl)oc23)[C@H](O)C1 [Flavopiridol]; assay: not given; settings: not given

Cell Line | GR50, 72 h [µM]
HCC1419 | 0.191
HCC1569 | 0.11
HCC1806 | 0.168
HCC1937 | 0.168
HCC1954 | 0.128
HS578T | 0.148

compound: CC(=O)c1c(C)c2cnc(Nc3ccc(N4CCN(CCOCCOCCOCCNC(=O)COc5cccc6c5C(=O)N(C5CCC(=O)NC5=O)C6=O)CC4)cn3)nc2n(C2CCCC2)c1=O [BSJ-03-123]; assay: not given; settings: not given

Cell Line | GR50, 72 h [µM]
HCC1419 | 0.491
HCC1569 | 2.86
HCC1806 | 2.56
HCC1937 | 9.94
HCC1954 | 1.07
HS578T | 1.45

compound: CN(C)CC[C@H](CSc1ccccc1)Nc1ccc(S(=O)(=O)NC(=O)c2ccc(N3CCN(Cc4ccccc4-c4ccc(Cl)cc4)CC3)cc2)cc1[N+](=O)[O-] [ABT-737]; assay: not given; settings: not given

Cell Line | GR50, 72 h [µM]
HCC1419 | 9.85
HCC1569 | 1.07
HCC1806 | > 10
HCC1937 | 5.77
HCC1954 | 9.94
HS578T | > 10

compound: COc1ccc2c(c1)[C@]1(C[C@H]1c1ccc3c(/C=C/c4ccc(CN5C[C@@H](C)O[C@@H](C)C5)cc4)n[nH]c3c1)C(=O)N2; assay: not given; settings: not given

Cell Line | GR50, 72 h [µM]
HCC1419 | 0.00375
HCC1569 | 0.00952
HCC1806 | 0.00322
HCC1937 | 0.00432
HCC1954 | 0.00444
HS578T | 0.00238

compound: CNCc1ccc(-c2[nH]c3cc(F)cc4c3c2CCNC4=O)cc1 [Rucaparib]; assay: not given; settings: not given

Cell Line | GR50, 72 h [µM]
HCC1419 | > 10
HCC1569 | > 10
HCC1806 | > 10
HCC1937 | > 10
HCC1954 | > 10
HS578T | > 10

compound: CN(C)C/C=C/C(=O)Nc1ccc(C(=O)Nc2cccc(Nc3ncc(Cl)c(-c4c[nH]c5ccccc45)n3)c2)cc1 [THZ1]; assay: not given; settings: not given

Cell Line | GR50, 72 h [µM]
HCC1419 | 0.0611
HCC1569 | 0.0283
HCC1806 | 0.0688
HCC1937 | 0.0648
HCC1954 | 0.0995
HS578T | 0.0183

compound: CN1CCN(CCOc2cc(OC3CCOCC3)c3c(Nc4c(Cl)ccc5c4OCO5)ncnc3c2)CC1 [Saracatinib/AZD0530]; assay: not given; settings: not given

Cell Line | GR50, 72 h [µM]
HCC1419 | 0.916
HCC1569 | 3.28
HCC1806 | 1.73
HCC1937 | > 10
HCC1954 | 2.12
HS578T | 4.04
